Legend:
Conditions in all cases: compound at 10 μM
[1] = biological target: T1, Human Melanocortin (MC4) (Homo sapiens, UniProt P32245); experiment: Radioligand binding, human melanocortin MC4 membranes, FlashPlate, [125I]-NDP-αMSH
T1 construct: purchased Perkin Elmer Biosignal
How it was run: (§1)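 Cloned human receptor membranes were coated onto FlashPlate wells and incubated with radioligand and compound (added from a 0.5 mM DMSO daughter plate) for 1 hour at room temperature in the dark. Scintillation counting gave percent inhibition, with DMSO defining total and reference ligand defining non-specific binding.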

[2] = biological target: T2, Human δ-opioid (DOP) (Homo sapiens, UniProt P41143); experiment: Radioligand binding, human δ-opioid (DOP) membranes, FlashPlate, [3H]-Bremazocine
T2 construct: purchased Perkin Elmer Biosignal
How it was run: as §1

[3] = biological target: T3, Human μ-opioid (MOP) (Homo sapiens, UniProt P35372); experiment: Radioligand binding, human μ-opioid (MOP) membranes, FlashPlate, [3H]-Naloxone
T3 construct: purchased Perkin Elmer Biosignal
How it was run: as §1

[4] = biological target: T4, Human neuropeptide Y (NPY-Y1) (Homo sapiens, UniProt P25929); experiment: Radioligand binding, human neuropeptide Y NPY-Y1 membranes, FlashPlate, [125I]-PYY
T4 construct: purchased Perkin Elmer Biosignal
T4 sequence (P25929 1-384): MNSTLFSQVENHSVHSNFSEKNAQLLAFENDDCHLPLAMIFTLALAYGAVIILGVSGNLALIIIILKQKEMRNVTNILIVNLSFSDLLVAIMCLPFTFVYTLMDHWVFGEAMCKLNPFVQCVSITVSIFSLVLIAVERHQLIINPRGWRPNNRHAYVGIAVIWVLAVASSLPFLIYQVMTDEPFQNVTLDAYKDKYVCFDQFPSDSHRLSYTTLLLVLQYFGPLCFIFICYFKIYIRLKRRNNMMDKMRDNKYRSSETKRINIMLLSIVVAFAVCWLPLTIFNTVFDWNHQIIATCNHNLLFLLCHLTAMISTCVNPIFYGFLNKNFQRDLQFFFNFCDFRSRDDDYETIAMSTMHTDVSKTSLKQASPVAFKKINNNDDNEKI
How it was run: as §1

[5] = biological target: T5, Human melanin-concentrating hormone (MCH1) (Homo sapiens, UniProt Q99705); experiment: Radioligand binding, human melanin-concentrating hormone MCH1 membranes, FlashPlate, [125I]-S36057
T5 construct: purchased Perkin Elmer Biosignal
How it was run: as §1

[6] = biological target: T6, Human opioid (ORL1) (Homo sapiens, UniProt P41146); experiment: Radioligand binding, human opioid ORL1 membranes, FlashPlate, [125I]-Nociceptin
T6 construct: purchased Perkin Elmer Biosignal
How it was run: as §1

[7] = biological target: T7, Human κ-Opioid (KOP) (Homo sapiens, UniProt P41145); experiment: Radioligand binding, human κ-opioid (KOP) membranes, filtration, [3H]-Diprenorphine
T7 construct: purchased Perkin Elmer Biosignal
How it was run: (§2)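 Membranes from cloned human receptors were incubated with compound and radioligand for 1 hour at room temperature. Bound ligand was collected on 0.3% PEI-soaked filters, washed with cold 50 mM Tris-HCl pH 7.4, and counted by scintillation. Percent inhibition was computed against DMSO totals and reference-ligand nonspecific wells.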

[8] = biological target: T8, Mouse urotensin (mUR2) (Mus musculus, UniProt Q8VIH9); experiment: Radioligand binding, mouse urotensin mUR2 membranes, FlashPlate, [125I]-Urotensin II
T8 construct: purchased Perkin Elmer Biosignal
T8 sequence (Q8VIH9 1-385): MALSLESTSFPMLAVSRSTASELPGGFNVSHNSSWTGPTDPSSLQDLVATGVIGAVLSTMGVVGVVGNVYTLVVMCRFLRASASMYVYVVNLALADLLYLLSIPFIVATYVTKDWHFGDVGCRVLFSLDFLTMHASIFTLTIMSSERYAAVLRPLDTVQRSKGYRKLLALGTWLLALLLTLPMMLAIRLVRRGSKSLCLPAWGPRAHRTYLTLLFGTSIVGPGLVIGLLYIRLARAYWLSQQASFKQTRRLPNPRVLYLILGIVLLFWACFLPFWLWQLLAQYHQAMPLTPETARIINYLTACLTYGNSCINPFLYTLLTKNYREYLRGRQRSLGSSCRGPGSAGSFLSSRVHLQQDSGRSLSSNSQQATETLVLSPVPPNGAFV
How it was run: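 Cloned mouse urotensin (mUR2) receptor membranes from Perkin Elmer Biosignal were immobilized in FlashPlate microplates using a proprietary coating. Each well got 19.5 μl buffer, then 0.5 μl of DMSO, reference ligand, or compound. Adding 5 μl of [125I]-Urotensin II, diluted to 5× final concentration in binding buffer, started binding. Plates were sealed with TopSeal-A and incubated 1 hour at room temperature in the dark. Wells were counted for 30 seconds each on a TopCount after a 60-second delay, and percentage inhibition was calculated.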

[9] = biological target: T9, Human melanocortin (MC5) (Homo sapiens, UniProt P33032); experiment: Radioligand binding, human melanocortin MC5 membranes, FlashPlate, [125I]-NDP-αMSH
T9 construct: purchased Perkin Elmer Biosignal
How it was run: as §1

[10] = biological target: T10, Human Melanocortin (MC3) (Homo sapiens, UniProt P41968); experiment: Radioligand binding, human melanocortin MC3 membranes, FlashPlate, [125I]-NDP-αMSH
T10 construct: purchased Perkin Elmer Biosignal
How it was run: as §1

[11] = biological target: T11, Human neurokinin (NK1) (Homo sapiens, UniProt P25103); experiment: Radioligand binding, human neurokinin NK1 membranes, filtration, [125I]-Substance P
T11 construct: purchased Perkin Elmer Biosignal
How it was run: as §2

[12] = [125I]-Urotensin II, FlashPlate

T6 sequence (P41146 whole entry): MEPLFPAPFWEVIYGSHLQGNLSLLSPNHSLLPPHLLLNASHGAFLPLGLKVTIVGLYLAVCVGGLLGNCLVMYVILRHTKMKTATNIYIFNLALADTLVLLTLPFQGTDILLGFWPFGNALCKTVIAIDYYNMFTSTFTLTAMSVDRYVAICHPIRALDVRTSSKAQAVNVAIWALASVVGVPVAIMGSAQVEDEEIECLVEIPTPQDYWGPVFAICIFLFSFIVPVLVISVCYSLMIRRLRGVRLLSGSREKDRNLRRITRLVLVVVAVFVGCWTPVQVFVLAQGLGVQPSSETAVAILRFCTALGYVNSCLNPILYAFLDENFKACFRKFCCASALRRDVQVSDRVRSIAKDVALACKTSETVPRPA
T11 sequence (P25103 whole entry): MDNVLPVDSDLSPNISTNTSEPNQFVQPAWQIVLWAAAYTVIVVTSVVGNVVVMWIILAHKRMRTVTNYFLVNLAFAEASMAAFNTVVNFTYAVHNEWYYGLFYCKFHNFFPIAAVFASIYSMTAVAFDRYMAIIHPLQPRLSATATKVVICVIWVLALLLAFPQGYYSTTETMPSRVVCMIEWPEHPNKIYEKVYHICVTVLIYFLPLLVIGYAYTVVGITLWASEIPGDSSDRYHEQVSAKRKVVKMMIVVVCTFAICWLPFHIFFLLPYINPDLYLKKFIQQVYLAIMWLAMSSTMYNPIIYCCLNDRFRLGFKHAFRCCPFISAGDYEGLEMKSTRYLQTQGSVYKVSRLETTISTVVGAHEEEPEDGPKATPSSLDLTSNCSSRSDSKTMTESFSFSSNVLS
T10 sequence (P41968 whole entry): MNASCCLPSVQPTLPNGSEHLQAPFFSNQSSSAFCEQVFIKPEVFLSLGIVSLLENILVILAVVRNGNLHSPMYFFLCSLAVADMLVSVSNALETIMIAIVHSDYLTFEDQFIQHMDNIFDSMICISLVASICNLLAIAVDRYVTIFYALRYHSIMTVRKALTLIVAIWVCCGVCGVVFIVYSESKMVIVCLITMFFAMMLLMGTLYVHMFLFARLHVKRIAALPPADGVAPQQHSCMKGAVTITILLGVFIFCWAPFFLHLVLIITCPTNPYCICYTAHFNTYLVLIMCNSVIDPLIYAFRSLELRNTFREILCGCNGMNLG
T9 sequence (P33032 whole entry): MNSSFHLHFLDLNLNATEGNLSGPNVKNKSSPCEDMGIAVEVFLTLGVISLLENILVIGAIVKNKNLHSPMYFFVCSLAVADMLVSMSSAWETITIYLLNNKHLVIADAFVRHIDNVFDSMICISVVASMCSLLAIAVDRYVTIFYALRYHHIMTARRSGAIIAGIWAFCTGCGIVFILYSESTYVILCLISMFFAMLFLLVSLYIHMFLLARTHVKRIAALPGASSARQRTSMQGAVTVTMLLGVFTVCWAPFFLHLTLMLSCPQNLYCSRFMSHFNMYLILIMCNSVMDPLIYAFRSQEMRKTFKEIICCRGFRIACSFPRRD
T2 sequence (P41143 whole entry): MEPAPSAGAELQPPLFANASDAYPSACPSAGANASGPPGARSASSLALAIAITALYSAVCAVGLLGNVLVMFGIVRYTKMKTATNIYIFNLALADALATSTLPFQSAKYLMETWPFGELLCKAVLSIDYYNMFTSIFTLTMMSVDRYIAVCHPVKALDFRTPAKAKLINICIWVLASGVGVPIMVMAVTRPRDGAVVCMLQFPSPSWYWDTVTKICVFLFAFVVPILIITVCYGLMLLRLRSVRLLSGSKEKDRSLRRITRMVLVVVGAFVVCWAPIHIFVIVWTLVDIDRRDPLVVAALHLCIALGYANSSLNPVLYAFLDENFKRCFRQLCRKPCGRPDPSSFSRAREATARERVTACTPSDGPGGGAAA
T5 sequence (Q99705 whole entry): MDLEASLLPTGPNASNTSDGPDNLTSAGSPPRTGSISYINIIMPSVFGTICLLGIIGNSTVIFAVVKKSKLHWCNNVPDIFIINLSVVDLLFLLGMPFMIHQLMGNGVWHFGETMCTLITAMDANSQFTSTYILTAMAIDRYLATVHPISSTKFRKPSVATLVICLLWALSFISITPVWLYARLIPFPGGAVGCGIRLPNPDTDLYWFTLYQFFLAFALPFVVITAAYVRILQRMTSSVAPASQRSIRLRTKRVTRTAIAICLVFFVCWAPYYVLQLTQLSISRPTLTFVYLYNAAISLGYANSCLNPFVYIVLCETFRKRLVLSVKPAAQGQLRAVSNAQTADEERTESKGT
T7 sequence (P41145 whole entry): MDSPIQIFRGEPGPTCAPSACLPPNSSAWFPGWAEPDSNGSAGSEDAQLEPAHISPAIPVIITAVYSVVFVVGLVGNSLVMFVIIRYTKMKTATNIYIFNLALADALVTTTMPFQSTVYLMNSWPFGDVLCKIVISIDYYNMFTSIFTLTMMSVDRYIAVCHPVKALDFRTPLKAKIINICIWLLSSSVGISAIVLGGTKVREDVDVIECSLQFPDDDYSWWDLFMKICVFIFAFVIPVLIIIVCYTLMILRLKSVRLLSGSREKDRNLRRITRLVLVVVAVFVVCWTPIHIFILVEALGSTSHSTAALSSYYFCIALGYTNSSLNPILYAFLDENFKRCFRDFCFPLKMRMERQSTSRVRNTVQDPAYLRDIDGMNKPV
T3 sequence (P35372 whole entry): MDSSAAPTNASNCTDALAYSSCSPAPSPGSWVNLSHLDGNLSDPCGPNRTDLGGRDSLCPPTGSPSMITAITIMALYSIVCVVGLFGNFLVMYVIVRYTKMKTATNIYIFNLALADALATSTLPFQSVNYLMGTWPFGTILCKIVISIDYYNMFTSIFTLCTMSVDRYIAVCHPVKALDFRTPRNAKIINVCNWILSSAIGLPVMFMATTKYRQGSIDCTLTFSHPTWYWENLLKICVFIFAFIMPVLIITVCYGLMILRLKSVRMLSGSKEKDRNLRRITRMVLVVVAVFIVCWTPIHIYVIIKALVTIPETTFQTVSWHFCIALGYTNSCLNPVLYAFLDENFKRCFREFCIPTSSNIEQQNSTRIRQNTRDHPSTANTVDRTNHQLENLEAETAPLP
T1 sequence (P32245 whole entry): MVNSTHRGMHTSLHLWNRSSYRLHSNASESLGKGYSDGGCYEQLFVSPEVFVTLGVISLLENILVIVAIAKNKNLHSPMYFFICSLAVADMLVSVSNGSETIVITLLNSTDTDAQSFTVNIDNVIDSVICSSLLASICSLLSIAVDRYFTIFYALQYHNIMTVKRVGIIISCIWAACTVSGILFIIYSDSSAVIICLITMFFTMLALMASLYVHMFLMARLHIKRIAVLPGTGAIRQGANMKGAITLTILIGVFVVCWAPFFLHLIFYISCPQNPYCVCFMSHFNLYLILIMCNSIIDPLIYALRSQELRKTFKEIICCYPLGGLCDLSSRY

## COC[C@H]1OC(OCc2ccc(-c3ccccc3)cc2)[C@H](NC(=O)CCCN)[C@@H](OCc2ccc(Cl)cc2)[C@@H]1O (stereo partly shown) [compound 12]
[1]; human melanocortin MC4 membranes
  A4 radioligand binding inhibition: − (“−” indicates less than 50% inhibition at 10 μM)
[2]; human δ-opioid (DOP) membranes
  A1 radioligand binding inhibition: − (“−” indicates less than 50% inhibition at 10 μM)
[3]; human μ-opioid (MOP) membranes
  A7 radioligand binding inhibition: − (“−” indicates less than 50% inhibition at 10 μM)
[4]; human NPY-Y1 membranes
  A9 radioligand binding inhibition: − (“−” indicates less than 50% inhibition at 10 μM)
[5]; human MCH1 membranes
  A6 radioligand binding inhibition: − (“−” indicates less than 50% inhibition at 10 μM)
[6]; human ORL1 membranes
  A10 radioligand binding inhibition: − (“−” indicates less than 50% inhibition at 10 μM)
[7]; human κ-opioid (KOP) membranes
  A2 radioligand binding inhibition: − (“−” indicates less than 50% inhibition at 10 μM)
[8]; mouse urotensin mUR2 membranes
  A11 radioligand binding inhibition: − (“−” indicates less than 50% inhibition at 10 μM)
[9]; human melanocortin MC5 membranes
  A5 radioligand binding inhibition: − (“−” indicates less than 50% inhibition at 10 μM)
[10]; human melanocortin MC3 membranes
  A3 radioligand binding inhibition: − (“−” indicates less than 50% inhibition at 10 μM)
[11]; human neurokinin NK1 membranes
  A8 radioligand binding inhibition: + (“+” indicates greater than 50% inhibition at 10 μM)

## CO[C@H]1[C@H](O)[C@@H](COCc2ccc3ccccc3c2)OC(OCCc2ccccc2)[C@@H]1NC(=O)CNC(=N)N (stereo partly shown) [compound 113]
[1]; [125I]-NDP-αMSH
  A4 radioligand binding, percentage inhibition: + (“+” indicates greater than 50% inhibition at 10 μM)
[2]; [3H]-Bremazocine
  A1 radioligand binding, percentage inhibition: − (“−” indicates less than 50% inhibition at 10 μM)
[3]; [3H]-Naloxone
  A7 radioligand binding, percentage inhibition: − (“−” indicates less than 50% inhibition at 10 μM)
[4]; [125I]-PYY
  A9 radioligand binding, percentage inhibition: − (“−” indicates less than 50% inhibition at 10 μM)
[5]; [125I]-S36057
  A6 radioligand binding, percentage inhibition: − (“−” indicates less than 50% inhibition at 10 μM)
[6]; [125I]-Nociceptin
  A10 radioligand binding, percentage inhibition: + (“+” indicates greater than 50% inhibition at 10 μM)
[7]; [3H]-Diprenorphine
  A2 radioligand binding, percentage inhibition: − (“−” indicates less than 50% inhibition at 10 μM)
[8]; [125I]-Urotensin II
  A11 radioligand binding, percentage inhibition: − (“−” indicates less than 50% inhibition at 10 μM)
[9]; [125I]-NDP-αMSH
  A5 radioligand binding, percentage inhibition: + (“+” indicates greater than 50% inhibition at 10 μM)
[10]; [125I]-NDP-αMSH
  A3 radioligand binding, percentage inhibition: − (“−” indicates less than 50% inhibition at 10 μM)
[11]; [125I]-Substance P
  A8 radioligand binding, percentage inhibition: + (“+” indicates greater than 50% inhibition at 10 μM)

## COCC1OC(OCc2ccc(Cl)cc2)C(NC(=O)CN)C(OCc2ccc3ccccc3c2)C1O (stereo not shown) [compound 208]
[1]; [125I]-NDP-αMSH, FlashPlate
  A4: inhibition of radioligand binding: − (“−” indicates less than 50% inhibition at 10 μM)
[2]; [3H]-Bremazocine, FlashPlate
  A1: inhibition of radioligand binding: − (“−” indicates less than 50% inhibition at 10 μM)
[3]; [3H]-Naloxone, FlashPlate
  A7: inhibition of radioligand binding: − (“−” indicates less than 50% inhibition at 10 μM)
[4]; [125I]-PYY, FlashPlate
  A9: inhibition of radioligand binding: − (“−” indicates less than 50% inhibition at 10 μM)
[5]; [125I]-S36057, FlashPlate
  A6: inhibition of radioligand binding: − (“−” indicates less than 50% inhibition at 10 μM)
[6]; [125I]-Nociceptin, FlashPlate
  A10: inhibition of radioligand binding: − (“−” indicates less than 50% inhibition at 10 μM)
[7]; [3H]-Diprenorphine, filtration
  A2: inhibition of radioligand binding: − (“−” indicates less than 50% inhibition at 10 μM)
[8]; [12]
  A11: inhibition of radioligand binding: − (“−” indicates less than 50% inhibition at 10 μM)
[9]; [125I]-NDP-αMSH, FlashPlate
  A5: inhibition of radioligand binding: + (“+” indicates greater than 50% inhibition at 10 μM)
[10]; [125I]-NDP-αMSH, FlashPlate
  A3: inhibition of radioligand binding: − (“−” indicates less than 50% inhibition at 10 μM)
[11]; [125I]-Substance P, filtration
  A8: inhibition of radioligand binding: + (“+” indicates greater than 50% inhibition at 10 μM)

## COCC1OC(OCCc2ccccc2)C(NC(=O)CCCN)C(OCc2ccc3ccccc3c2)C1O (stereo not shown) [compound 228]
[1]; [125I]-NDP-αMSH, FlashPlate
  A4: inhibition of radioligand binding: − (“−” indicates less than 50% inhibition at 10 μM)
[2]; [3H]-Bremazocine, FlashPlate
  A1: inhibition of radioligand binding: − (“−” indicates less than 50% inhibition at 10 μM)
[3]; [3H]-Naloxone, FlashPlate
  A7: inhibition of radioligand binding: − (“−” indicates less than 50% inhibition at 10 μM)
[4]; [125I]-PYY, FlashPlate
  A9: inhibition of radioligand binding: − (“−” indicates less than 50% inhibition at 10 μM)
[5]; [125I]-S36057, FlashPlate
  A6: inhibition of radioligand binding: − (“−” indicates less than 50% inhibition at 10 μM)
[6]; [125I]-Nociceptin, FlashPlate
  A10: inhibition of radioligand binding: − (“−” indicates less than 50% inhibition at 10 μM)
[7]; [3H]-Diprenorphine, filtration
  A2: inhibition of radioligand binding: − (“−” indicates less than 50% inhibition at 10 μM)
[8]; [12]
  A11: inhibition of radioligand binding: − (“−” indicates less than 50% inhibition at 10 μM)
[9]; [125I]-NDP-αMSH, FlashPlate
  A5: inhibition of radioligand binding: + (“+” indicates greater than 50% inhibition at 10 μM)
[10]; [125I]-NDP-αMSH, FlashPlate
  A3: inhibition of radioligand binding: − (“−” indicates less than 50% inhibition at 10 μM)
[11]; [125I]-Substance P, filtration
  A8: inhibition of radioligand binding: + (“+” indicates greater than 50% inhibition at 10 μM)

## N=C(N)NCCC(=O)NC1C(OCc2ccc(-c3ccccc3)cc2)OC(COCc2ccccc2)C(O)C1OCc1ccc2ccccc2c1 (stereo not shown) [compound 412]
[1]; [125I]-NDP-αMSH, human MC4 membranes
  A4: inhibition of radioligand binding: + (“+” indicates greater than 50% inhibition at 10 μM)
[2]; [3H]-Bremazocine, human DOP membranes
  A1: inhibition of radioligand binding: − (“−” indicates less than 50% inhibition at 10 μM)
[3]; [3H]-Naloxone, human MOP membranes
  A7: inhibition of radioligand binding: − (“−” indicates less than 50% inhibition at 10 μM)
[4]; [125I]-PYY, human NPY-Y1 membranes
  A9: inhibition of radioligand binding: − (“−” indicates less than 50% inhibition at 10 μM)
[5]; [125I]-S36057, human MCH1 membranes
  A6: inhibition of radioligand binding: + (“+” indicates greater than 50% inhibition at 10 μM)
[6]; [125I]-Nociceptin, human ORL1 membranes
  A10: inhibition of radioligand binding: + (“+” indicates greater than 50% inhibition at 10 μM)
[7]; [3H]-Diprenorphine, human KOP membranes
  A2: inhibition of radioligand binding: − (“−” indicates less than 50% inhibition at 10 μM)
[8]; [125I]-Urotensin II, mouse mUR2 membranes
  A11: inhibition of radioligand binding: − (“−” indicates less than 50% inhibition at 10 μM)
[9]; [125I]-NDP-αMSH, human MC5 membranes
  A5: inhibition of radioligand binding: + (“+” indicates greater than 50% inhibition at 10 μM)
[10]; [125I]-NDP-αMSH, human MC3 membranes
  A3: inhibition of radioligand binding: + (“+” indicates greater than 50% inhibition at 10 μM)
[11]; [125I]-Substance P, human NK1 membranes
  A8: inhibition of radioligand binding: + (“+” indicates greater than 50% inhibition at 10 μM)

— patent US20080009418A1, “Selective Inhibitors” (Alchemia LTD., priority 2004, published 2008)
